The values below come from patent US7572753B2 (priority 2005, dated 2009).

This experiment deals with Pyricularia oryzae. The class given is in vivo. The settings on record: 300 ppm, greenhouse foliar application spray on rice (var. Lemont) plants, inoculated within 24 hours from spraying.

In the case of `N#CCn1nnc(-c2ccccc2)n1` [Example 1, 5-phenyl-2H-tetrazole-2-acetonitrile], the “Percent (%) disease control, Rice Blast” value is reported as 70%.
